Values quoted from earlier work in patent publication EP0423943A2, “Use of collagenase inhibitors in the treatment of demyelinating diseases, in particular multiple sclerosis” (Beecham Group p.l.c., priority 1989, dated 1991).

System: metalloprotease acting at neutral pH identified as a component of myelin membranes
Conditions: myelin membrane metalloprotease, literature statement

| inhibition of the enzyme | Compound |
| --- | --- |
| not | CC(C)C[C@H](NP(=O)(O)O[C@@H]1O[C@@H](C)[C@H](O)[C@@H](O)[C@H]1O)C(=O)N[C@@H](Cc1c[nH]c2ccccc12)C(=O)O [phosphoramidon] |
| inhibited | c1cnc2c(c1)ccc1cccnc12 [1,10-phenanthroline] |
